For one test, the target named is T1, human TLR8 (Homo sapiens, UniProt Q9NR97).
T1 construct: host or cells: HEK293 reporter cell line
T1 sequence (Q9NR97 27-1041): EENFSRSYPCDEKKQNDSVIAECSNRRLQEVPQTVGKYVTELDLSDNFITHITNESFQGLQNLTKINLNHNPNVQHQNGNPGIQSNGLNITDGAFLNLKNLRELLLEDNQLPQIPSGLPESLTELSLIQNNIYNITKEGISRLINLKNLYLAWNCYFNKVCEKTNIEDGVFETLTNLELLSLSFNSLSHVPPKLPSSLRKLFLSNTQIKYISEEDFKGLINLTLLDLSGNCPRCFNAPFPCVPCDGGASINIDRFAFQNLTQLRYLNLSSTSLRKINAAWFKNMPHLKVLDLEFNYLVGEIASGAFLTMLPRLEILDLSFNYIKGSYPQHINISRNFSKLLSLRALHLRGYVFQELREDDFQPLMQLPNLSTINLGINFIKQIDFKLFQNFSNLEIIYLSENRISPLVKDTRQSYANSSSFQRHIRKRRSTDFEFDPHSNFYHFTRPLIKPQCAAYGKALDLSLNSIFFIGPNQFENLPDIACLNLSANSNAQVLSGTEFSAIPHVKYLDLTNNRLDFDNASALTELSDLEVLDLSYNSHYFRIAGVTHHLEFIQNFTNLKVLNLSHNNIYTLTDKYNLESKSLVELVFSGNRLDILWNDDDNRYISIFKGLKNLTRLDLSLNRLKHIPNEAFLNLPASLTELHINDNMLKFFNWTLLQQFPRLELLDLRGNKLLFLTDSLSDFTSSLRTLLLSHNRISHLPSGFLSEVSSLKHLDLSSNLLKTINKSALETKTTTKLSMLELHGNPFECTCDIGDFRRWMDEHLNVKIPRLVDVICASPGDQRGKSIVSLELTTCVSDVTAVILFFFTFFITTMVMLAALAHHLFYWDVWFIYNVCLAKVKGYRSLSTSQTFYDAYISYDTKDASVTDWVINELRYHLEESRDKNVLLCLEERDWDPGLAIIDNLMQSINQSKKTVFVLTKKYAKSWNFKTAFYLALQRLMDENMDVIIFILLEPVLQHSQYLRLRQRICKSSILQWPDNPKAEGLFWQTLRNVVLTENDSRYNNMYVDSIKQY
The test is described as follows: Human TLR8 receptor activation, HEK293 reporter cell line. It counts as cell-based. Particulars: HEK293 reporter cells, 16 hours. On the procedure: (§1) Compounds were tested for their activity to activate human TLR7 and TLR8 receptors using HEK293 reporter cell lines engineered to express respective receptors in accordance to manufacturer's instructions (InvivoGen). […] Incubation was for 16 hours at 37° C. and […]. Absorption at 655 nm was read on […]. Data was fitted using PRISM.

In the next test the target is T2, human TLR7 (Homo sapiens, UniProt Q9NYK1).
T2 construct: host or cells: HEK293 reporter cell line
T2 sequence (Q9NYK1 27-1049): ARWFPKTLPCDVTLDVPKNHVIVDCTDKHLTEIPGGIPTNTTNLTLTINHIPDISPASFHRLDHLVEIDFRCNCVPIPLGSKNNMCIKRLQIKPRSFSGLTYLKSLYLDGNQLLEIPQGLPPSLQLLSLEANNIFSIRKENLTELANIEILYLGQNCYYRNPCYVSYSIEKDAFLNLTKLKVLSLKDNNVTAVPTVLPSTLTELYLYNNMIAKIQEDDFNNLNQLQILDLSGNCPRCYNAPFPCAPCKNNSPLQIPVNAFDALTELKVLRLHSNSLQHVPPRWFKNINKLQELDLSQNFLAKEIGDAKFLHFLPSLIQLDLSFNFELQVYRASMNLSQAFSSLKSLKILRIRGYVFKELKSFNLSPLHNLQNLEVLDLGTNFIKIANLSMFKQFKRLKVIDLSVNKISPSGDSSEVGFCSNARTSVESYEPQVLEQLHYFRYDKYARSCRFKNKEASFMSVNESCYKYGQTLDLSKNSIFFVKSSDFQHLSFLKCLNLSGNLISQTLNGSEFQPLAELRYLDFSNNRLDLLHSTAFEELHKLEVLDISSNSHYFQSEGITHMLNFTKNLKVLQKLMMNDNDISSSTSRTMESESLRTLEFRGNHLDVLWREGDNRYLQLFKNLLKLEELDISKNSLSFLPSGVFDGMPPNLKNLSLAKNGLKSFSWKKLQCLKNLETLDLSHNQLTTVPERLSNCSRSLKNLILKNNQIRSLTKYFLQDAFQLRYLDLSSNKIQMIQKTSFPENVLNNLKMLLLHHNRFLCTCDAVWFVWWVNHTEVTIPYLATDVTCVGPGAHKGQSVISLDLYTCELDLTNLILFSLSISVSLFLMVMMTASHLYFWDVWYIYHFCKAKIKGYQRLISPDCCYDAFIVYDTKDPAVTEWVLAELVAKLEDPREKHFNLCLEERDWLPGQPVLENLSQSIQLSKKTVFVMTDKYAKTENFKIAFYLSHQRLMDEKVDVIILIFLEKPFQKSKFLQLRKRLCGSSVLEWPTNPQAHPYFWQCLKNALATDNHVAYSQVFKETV
In words: Human TLR7 receptor activation, HEK293 reporter cell line. Particulars: HEK293 reporter cells, 16 hours. In kind it is cell-based. On the procedure:
as §1

Experimental findings from patent publication US20200283482A1, “BICYCLIC PEPTIDE LIGAND PRR-A CONJUGATES AND USES THEREOF” (BicycleRD Limited, priority 2017, published 2020) are described below.

Starred links: 1 amine or outer side, 2 acyl side, 3 side chain; linkers in the order of their positions; H or OH if unused. Positions of bridges follow the written chain, without caps; N, C: chain ends. Non-standard residues stand in square brackets, D forms with d. Residues, ends and D or L forms follow the SMILES beside them. *: point of attachment. X1 = CCOCc1nc2c(NC(=O)OCCSSC(C)CCC(=O)*)nc3ccccc3c2n1CC(C)(C)O; 1Nal = N[C@@H](Cc1cccc2ccccc12)C(=O)O; TBMB = c1c(C[*:1])cc(C[*:3])cc1C[*:2]; Tle = CC(C)(C)[C@H](N)C(=O)O; βAla = NCCC(=O)O; Sar = CNCC(=O)O

Take `CCOCc1nc2c(NC(=O)OCCSSC(C)CCC(=O)NCCC(=O)N(C)CC(=O)N(C)CC(=O)N(C)CC(=O)N(C)CC(=O)N(C)CC(=O)N(C)CC(=O)N(C)CC(=O)N(C)CC(=O)N(C)CC(=O)N(C)CC(=O)N[C@@H](C)C(=O)N[C@H]3CSCc4cc5cc(c4)CSC[C@H](NC(=O)[C@@H](C)NC(=O)[C@H](Cc4cccc6ccccc46)NC(=O)[C@H](CCC(=O)O)NC(=O)[C@H](CC(N)=O)NC(=O)[C@@H](C)NC3=O)C(=O)N[C@@H](CCC(=O)O)C(=O)N[C@@H](CC(=O)O)C(=O)N[C@@H](Cc3ccccc3)C(=O)N[C@@H](Cc3ccc(O)cc3)C(=O)N[C@@H](CC(=O)O)C(=O)N[C@@H](C(C)(C)C)C(=O)N[C@H](C(N)=O)CSC5)nc3ccccc3c2n1CC(C)(C)O` (some centres unmarked) [I-8] ({X1-βAla}-[Sar][Sar][Sar][Sar][Sar][Sar][Sar][Sar][Sar][Sar]AC[dA]NE[1Nal][dA]CEDFYD[Tle]C-NH2; linker 12-18-25 via TBMB): the “hTLR8 activation potency versus naked payload resiquimod” value on human TLR8 is “considerably reduced potency or inactivity”. Further, the “hTLR7 activation potency versus naked payload resiquimod” value on human TLR7 is “considerably reduced potency or inactivity”.
